Laboratory results published in the supplement of paper PMC10307832.

Tests used:
Experiment in all cases: relative viability (nuclei count vs DMSO), 5 days (fraction); higher = more cells survive
AZ505 + Pemetrexed = compound: C1CCC(CC1)N(CCNCCC2=C3C(=C(C=C2)O)NC(=O)CO3)C(=O)CCNCCC4=CC(=C(C=C4)Cl)Cl [AZ505] + Nc1nc2[nH]cc(CCc3ccc(C(=O)N[C@@H](CCC(=O)O)C(=O)O)cc3)c2c(=O)[nH]1 [Pemetrexed] (partner 0.2 µM)
How it was run: (§1)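 Relative viability is defined as nuclei in treated wells over nuclei in vehicle wells. Duplicate plates were run and medians reported. Lung cancer cell lines in 1536-well plates were dosed by pin tool one day after seeding, with one drug or with a fixed anchor-drug dose plus five library-drug doses (not always all listed) in √10 steps, and nuclei were counted after 5 days.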

Dactolisib + Vorinostat = compound: Cn1c(=O)n(-c2ccc(C(C)(C)C#N)cc2)c2c3cc(-c4cnc5ccccc5c4)ccc3ncc21 [Dactolisib] + O=C(CCCCCCC(=O)Nc1ccccc1)NO [Vorinostat] (partner 1 µM)
How it was run: as §1

Dactolisib + Pictilisib = compound: Cn1c(=O)n(-c2ccc(C(C)(C)C#N)cc2)c2c3cc(-c4cnc5ccccc5c4)ccc3ncc21 [Dactolisib] + CS(=O)(=O)N1CCN(Cc2cc3nc(-c4cccc5[nH]ncc45)nc(N4CCOCC4)c3s2)CC1 [Pictilisib] (partner 1 µM)
How it was run: as §1

AZ505 + Olaparib = compound: C1CCC(CC1)N(CCNCCC2=C3C(=C(C=C2)O)NC(=O)CO3)C(=O)CCNCCC4=CC(=C(C=C4)Cl)Cl [AZ505] + O=C(c1cc(Cc2n[nH]c(=O)c3ccccc23)ccc1F)N1CCN(C(=O)C2CC2)CC1 [Olaparib] (partner 8 µM)
How it was run: as §1

| Cell Line | relative viability (AZ505 + Pemetrexed; first compound 0.08 µM) | relative viability (AZ505 + Pemetrexed; first compound 0.253 µM) | relative viability (AZ505 + Pemetrexed; first compound 0.8 µM) | relative viability (AZ505 + Pemetrexed; first compound 2.53 µM) | relative viability (AZ505 + Pemetrexed; first compound 8 µM) | relative viability (Dactolisib + Vorinostat; first compound 0.002 µM) | relative viability (Dactolisib + Vorinostat; first compound 0.006325 µM) | relative viability (Dactolisib + Vorinostat; first compound 0.02 µM) | relative viability (Dactolisib + Vorinostat; first compound 0.06325 µM) | relative viability (Dactolisib + Vorinostat; first compound 0.2 µM) | relative viability (Dactolisib + Pictilisib; first compound 0.002 µM) | relative viability (Dactolisib + Pictilisib; first compound 0.006325 µM) | relative viability (Dactolisib + Pictilisib; first compound 0.02 µM) | relative viability (Dactolisib + Pictilisib; first compound 0.06325 µM) | relative viability (Dactolisib + Pictilisib; first compound 0.2 µM) | relative viability (AZ505 + Olaparib; first compound 0.08 µM) | relative viability (AZ505 + Olaparib; first compound 0.253 µM) | relative viability (AZ505 + Olaparib; first compound 0.8 µM) | relative viability (AZ505 + Olaparib; first compound 2.53 µM) | relative viability (AZ505 + Olaparib; first compound 8 µM) |
| --- | --- | --- | --- | --- | --- | --- | --- | --- | --- | --- | --- | --- | --- | --- | --- | --- | --- | --- | --- | --- |
| NCI-H2023 | 0.219 | 0.221 | 0.244 | 0.221 | 0.244 | 0.305 | 0.479 | 0.439 | 0.098 | 0.11 | 0.205 | 0.212 | 0.173 | 0.121 | 0.108 | 0.414 | 0.496 | 0.499 | 0.471 | 0.43 |
| NCI-H2085 | 0.832 | 0.758 | 0.78 | 0.835 | 0.965 | 0.801 | 0.742 | 0.712 | 0.363 | 0.329 | 0.372 | 0.472 | 0.352 | 0.332 | 0.396 | 0.715 | 0.797 | 0.654 | 0.735 | 0.729 |
| NCI-H2087 | 0.616 | 0.614 | 0.691 | 0.741 | 0.696 | 0.731 | 0.458 | 0.501 | 0.176 | 0.339 | 1.02 | 0.867 | 0.714 | 0.463 | 0.336 | 0.515 | 0.536 | 0.552 | 0.629 | 0.611 |
| NCI-H2126 | 0.58 | 0.628 | 0.719 | 0.713 | 0.629 | 0.856 | 0.763 | 0.594 | 0.427 | 0.426 | 0.563 | 0.461 | 0.434 | 0.425 | 0.368 | 0.841 | 0.915 | 0.827 | 0.878 | 0.948 |
| NCI-H2170 | 0.254 | 0.257 | 0.238 | 0.253 | 0.264 | 0.821 | 0.815 | 0.754 | 0.613 | 0.259 | 0.305 | 0.311 | 0.289 | 0.22 | 0.224 | 0.544 | 0.601 | 0.614 | 0.58 | 0.594 |
| NCI-H2228 | 0.334 | 0.353 | 0.366 | 0.356 | 0.283 | 0.652 | 0.682 | 0.429 | 0.327 | 0.164 | 0.355 | 0.291 | 0.248 | 0.173 | 0.222 | 0.669 | 0.627 | 0.524 | 0.863 | 0.481 |
| NCI-H2347 | 0.392 | 0.367 | 0.428 | 0.387 | 0.428 | 0.557 | 0.55 | 0.585 | 0.364 | 0.378 | 0.49 | 0.599 | 0.482 | 0.389 | 0.237 | 0.554 | 0.505 | 0.489 | 0.489 | 0.52 |
